The target in one data set is T1, h-5-HT6 receptor (Homo sapiens, UniProt P50406).
T1 construct: expressed in transfected cells
The experiment in a line: 5-HT6 receptor binding assay (displacement of [3H]-LSD). Conditions: cloned human 5-HT6 receptor, HEK293 membranes, 1 nM [3H]-LSD. How it is done:
Displacement of radioligands binding to the following cloned human receptors
1. Preparation of Membranes by Ultrasonic Treatment and Differential Centrifugation
Cells from stable clonal cell lines expressing the corresponding receptor (5-HT6, α1-adrenergic, dopamine D2 or histamine H1 receptors) were washed with PBS (w/o Ca^++, Mg^++) and harvested in PBS with 0.02% EDTA. The cells were collected by centrifugation at 500 g for 10 min. at 4° C., washed with PBS and centrifuged (500 g, 10 min. 4° C.). The pellets were stored at −80° C. until use. For membrane preparation, the thawed cell pellet was resuspended in ice-cold sucrose buffer (0.25 M sucrose, 10 mM Hepes (pH 7.4), 1 mM Phenylmethylsulfonyl fluoride (PMSF) in DMSO, 5 μg/ml Pepstatin-A, 3 mM EDTA, 0.025% Bacitracin) and homogenized with a Branson Sonifier W-250 (Settings: Timer 4; Output Control 3; Duty Cycle constant; 2 to 3 cycles). Cell disruption was checked with the aid of a microscope. Remaining unbroken cells were pelleted at 1.000 g for 10 min. at 4° C. The sucrose buffer supernatant was then centrifuged at 60.000 g for 1 h at 4° C. (Beckman Ultrazentrifuge XL 80). The pellet was resuspended in 30 ml ice-cold Tris buffer (20 mM TRIS (pH 7.4), 5 μg/ml Pepstatin A, 0.1 mM PMSF, 3 mM EDTA) by pipetting through a 10 ml serological pipet and centrifuged for 1 h at 4° C. at 60.000 g. A final resuspension was performed in a small volume of ice-cold Tris buffer (see above) by pressing through a serological pipet followed by ultrasonic treatment with a Branson Sonifier W-250 (Settings: Timer 1; Output Control 3; Duty Cycle constant; 1 cycle). Protein concentration was determined (BCA-Kit; Pierce) and aliquots stored at −80° C. or in liquid nitrogen for long-term storage.
2. Receptor Binding Experiments
All receptor binding experiments were carried out in the corresponding assay buffer in a total volume of 200 μl in the presence of various concentrations of test compound (10^−5 M to 10^−9 M, tenfold serial dilution, duplicate determinations). The assays were terminated by filtration on polyethylenimine (PEI 0.1% or 0.3%) presoaked Packard Unifilter Plates (GF/C or GF/B) with a Tomtec MachIII U 96 well-plate harvester. After the plates had been dried for 2 h at 55° C. in a drying chamber scintillation cocktail (BetaPlate Scint; PerkinElmer) was added. Radioactivity was measured in a Microbeta Trilux two hours after the addition of the scintillation mixture. Data derived from liquid scintillation counting were analysed by iterative non-linear regression analysis with the use of the Statistical Analysis System (SAS): a program similar to “LIGAND” as described by Munson and Rodbard (Analytical Biochemistry 107, 220-239 (1980).
a) 5-HT6 Receptor Binding Assay
HEK293 cells stably expressing the h-5-HT6 receptor (NCBI Reference Sequence XM 001435) were cultured in RPMI1640 medium supplemented with 25 mM HEPES, 10% fetal calf serum and 1-2 mM glutamine. The membrane preparation was performed as described in section 1. […] Non-specific binding was defined with 1 μM methiothepin. The binding reaction was carried out for 3.5 h at room temperature. During the incubation, the plates were shaken on a plate shaker at 100 rpm and terminated by filtration on Packard Unifilter GF/C (0.1% PEI) plates, followed by 2 wash cycles with ice-cold 50 mM Tris-HCl, 5 mM CaCl2.
Data derived from liquid scintillation counting were analyzed by iterative non-linear regression analysis with the use of the Statistical Analysis System (SAS): a program similar to “LIGAND” as described by Munson and Rodbard (Anal. Biochem. 1980, 107, 220-239). Fitting was performed according to formulae described by Feldman (Anal. Biochem. 1972, 48, 317-338). IC50, nH and Ki values were expressed as geometrical mean.

Data set [1] is described as follows: Metabolic stability in human liver microsomes (microsomal clearance). It counts as in vitro ADME. Conditions: pH 7.4; human liver microsomes 0.25 mg protein/mL, 0.5 μM compound, NADPH, 37° C.; read-out: mClint. How it is done:
Samples of the tested compounds (0.5 μM) were preincubated together with human liver microsomes (0.25 mg of microsomal protein/mL) in 0.05 M potassium phosphate buffer of pH 7.4 in microtiter plates at 37° C. for 5 minutes. The reaction was started by adding NADPH (1.0 mM). After 0, 5, 10, 15, 20 and 30 minutes, an aliquot was removed, the reaction was cooled and stopped by adding twice the amount of quench solution consisting of acetonitrile/methanol 1:1, and containing 0.2 μM carbutamide as internal standard. The samples were frozen until analyzed. The remaining concentration of undegraded test substance was determined by liquid chromatography-tandem mass spectrometry (LC-MS/MS). The half-life (t1/2) was determined from the gradient of the ratio of the signal of (test substance/internal standard)/unit time plot, allowing the calculation of the half-life of the test substance, assuming first order kinetics, from the decrease in the concentration of the compound with time. The microsomal clearance (mClint) was calculated as follows: mClint=((ln(2)/t 1/2)/Microsomal Protein Concentration (mg/ml))*1000, leading to the unit of μL/min/mg.
In general terms: Liver microsomes are a subcellular fraction often used to study metabolism.

Experimental findings from patent US10160744B2, “Quinoline compounds suitable for treating disorders that respond to the modulation of the serotonin 5-HT6 receptor” (Abbvie Deutschland GmbH & Co. KG, priority 2016, dated 2018) are described below.

T1 sequence (P50406 whole entry): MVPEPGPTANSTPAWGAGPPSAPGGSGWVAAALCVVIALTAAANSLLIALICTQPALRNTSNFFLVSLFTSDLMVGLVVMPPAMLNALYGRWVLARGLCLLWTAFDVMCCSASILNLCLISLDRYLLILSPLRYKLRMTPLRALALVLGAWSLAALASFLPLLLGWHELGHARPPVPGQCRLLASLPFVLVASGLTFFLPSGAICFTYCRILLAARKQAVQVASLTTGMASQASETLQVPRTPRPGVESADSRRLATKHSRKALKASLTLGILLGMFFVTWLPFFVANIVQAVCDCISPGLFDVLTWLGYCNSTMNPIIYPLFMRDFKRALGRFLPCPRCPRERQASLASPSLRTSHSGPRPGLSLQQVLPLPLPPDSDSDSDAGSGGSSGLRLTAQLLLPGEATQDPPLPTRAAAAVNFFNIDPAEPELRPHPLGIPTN

For orientation: Ki means the equilibrium dissociation constant of an inhibitor or competing ligand from its target. High values mean a looser hold on the target, low ones a stronger hold on the target. `O=S(=O)(c1ccccc1)c1cnc2c(N3CCC[C@@H](O)C3)cccc2c1` [Example 23, (3R)-1-[3-(Benzenesulfonyl)-8-quinolyl]piperidin-3-ol] gave an inhibitory constant (Ki) on h-5-HT6 receptor of less than 10 nM. Besides, the microsomal CLint at 0.5 μM in data set [1] was 30 to 60 µL/min/mg.

`O=C(O)C1CCCN(c2cccc3cc(S(=O)(=O)c4cccc(C(F)(F)F)c4)cnc23)C1` (stereo not drawn) [Example 6, 1-[3-(3-Trifluoromethyl-benzenesulfonyl)-quinolin-8-yl]-piperidine-3-carboxylic Acid]: the inhibition constant Ki on h-5-HT6 receptor lay within 10 to 100 nM. The microsomal CLint at 0.5 μM in data set [1] is less than 30 µL/min/mg.

Turning to `O=S(=O)(c1cccc(C(F)(F)F)c1)c1cnc2c(N3CCC[C@@H](O)C3)cccc2c1` [Example 5, (R)-1-[3-(3-Trifluoromethyl-benzenesulfonyl)-quinolin-8-yl]-piperidin-3-ol], at h-5-HT6 receptor, the Ki was less than 10 nM. The microsomal CLint at 0.5 μM in data set [1] lay in the range of 60 to 120 µL/min/mg.

As to `O=S(=O)(c1cccc(F)c1)c1cnc2c(N3CCC[C@H](O)C3)cccc2c1` [Example 27, (3S)-1-[3-(3-Fluorophenyl)sulfonyl-8-quinolyl]piperidin-3-ol], on h-5-HT6 receptor, the Ki was less than 10 nM. The microsomal CLint at 0.5 μM in data set [1] fell in the range of 30 to 60 µL/min/mg.

On h-5-HT6 receptor, `O=S(=O)(c1cccc(C(F)(F)F)c1)c1cnc2c(N3CCC(O)C3)cccc2c1` (stereo not drawn) [Example 2, 1-[3-(3-Trifluoromethyl-benzenesulfonyl)-quinolin-8-yl]-pyrrolidin-3-ol] showed an inhibition constant Ki of less than 10 nM. Moreover, the microsomal CLint at 0.5 μM in data set [1] fell in the range of 60 to 120 µL/min/mg.

For `O=S(=O)(c1cccc(N2CCC(O)CC2)c1)c1cnc2c(F)cccc2c1` [Example 24, 1-[3-[(8-Fluoro-3-quinolyl)sulfonyl]phenyl]piperidin-4-ol], the inhibition constant (Ki) on h-5-HT6 receptor lay in the range of 10 to 100 nM. Besides, the microsomal CLint at 0.5 μM in data set [1] lay within 60 to 120 µL/min/mg.
